Source: ChEMBL document CHEMBL1909046, “DrugMatrix in vitro pharmacology data”

Tests used:
[1] = biological target: Sigma non-opioid intracellular receptor 1 (Homo sapiens, UniProt Q99720); test: DRUGMATRIX: Sigma1 radioligand binding (ligand: [3H] Haloperidol); format: cell membranes, Jurkat, Membrane; details: Not Active = under 50% inhibition at 10 µM
Cathepsin G = biological target: T1, Cathepsin G (Homo sapiens, UniProt P08311); format: tissue-based; details: neutrophil;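 further: inhibition of Cathepsin G enzyme activity, tested on an AMC-conjugated peptide substrate; in other assays of this panel Not Active means under 50% inhibition at 10 µM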
T1 sequence (P08311 whole entry): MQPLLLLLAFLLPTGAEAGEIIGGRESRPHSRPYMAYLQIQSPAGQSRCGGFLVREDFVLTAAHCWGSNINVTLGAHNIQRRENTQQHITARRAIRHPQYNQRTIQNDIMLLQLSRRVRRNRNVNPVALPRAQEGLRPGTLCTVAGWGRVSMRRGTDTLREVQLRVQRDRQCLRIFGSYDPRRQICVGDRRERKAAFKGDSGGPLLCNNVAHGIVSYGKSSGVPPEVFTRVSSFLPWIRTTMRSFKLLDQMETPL

D(4) dopamine receptor = biological target: T2, D(4) dopamine receptor (Homo sapiens, UniProt P21917); test: DRUGMATRIX: Dopamine D4.2 radioligand binding (ligand: [3H] Spiperone); format: cell membranes, CHO-K1, Membrane; details: Not Active = under 50% inhibition at 10 µM
T2 sequence (P21917 whole entry): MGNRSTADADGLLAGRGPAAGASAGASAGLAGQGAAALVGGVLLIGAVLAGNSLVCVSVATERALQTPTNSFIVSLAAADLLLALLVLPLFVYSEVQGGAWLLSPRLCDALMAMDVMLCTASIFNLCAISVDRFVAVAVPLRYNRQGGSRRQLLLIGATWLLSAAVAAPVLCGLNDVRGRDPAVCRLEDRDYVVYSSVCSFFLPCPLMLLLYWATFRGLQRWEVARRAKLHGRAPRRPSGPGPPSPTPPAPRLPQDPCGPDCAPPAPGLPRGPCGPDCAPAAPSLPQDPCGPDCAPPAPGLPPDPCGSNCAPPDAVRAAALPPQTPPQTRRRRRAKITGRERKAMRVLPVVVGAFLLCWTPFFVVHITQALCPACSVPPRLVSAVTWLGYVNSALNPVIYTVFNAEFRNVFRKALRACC

[2] = DRUGMATRIX: Sodium/nucleoside co-transporter radioligand binding (ligand: nitrobenzylthioinosine); format: cell membranes, Cavia porcellus, Dunkin-Hartley, Cerebral cortex, Membrane; details: Not Active = under 50% inhibition at 10 µM
Substance-P receptor = Substance-P receptor (Homo sapiens, UniProt P25103); format: cell membranes, Membrane; details: cho; further: in other assays of this panel Not Active means under 50% inhibition at 10 µM
Substance-P receptor, sequence (P25103 whole entry): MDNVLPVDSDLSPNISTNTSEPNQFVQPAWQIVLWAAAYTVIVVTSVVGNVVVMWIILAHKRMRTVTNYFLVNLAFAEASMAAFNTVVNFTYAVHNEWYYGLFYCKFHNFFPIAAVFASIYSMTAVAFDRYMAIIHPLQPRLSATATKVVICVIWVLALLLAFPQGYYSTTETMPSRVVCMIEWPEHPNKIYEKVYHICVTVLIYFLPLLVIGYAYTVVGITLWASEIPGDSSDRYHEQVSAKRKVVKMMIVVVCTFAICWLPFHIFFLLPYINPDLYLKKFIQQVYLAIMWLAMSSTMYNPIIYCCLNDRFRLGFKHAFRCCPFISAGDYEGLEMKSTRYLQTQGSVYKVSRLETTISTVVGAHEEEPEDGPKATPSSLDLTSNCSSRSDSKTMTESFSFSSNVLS

[3] = biological target: T3, Nitric oxide synthase, inducible (Mus musculus, UniProt P29477); set-up: species or system Escherichia coli;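 further: inhibition of iNOS enzyme activity measured with L-arginine as substrate; in other assays of this panel Not Active means under 50% inhibition at 10 µM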
T3 sequence (P29477 whole entry): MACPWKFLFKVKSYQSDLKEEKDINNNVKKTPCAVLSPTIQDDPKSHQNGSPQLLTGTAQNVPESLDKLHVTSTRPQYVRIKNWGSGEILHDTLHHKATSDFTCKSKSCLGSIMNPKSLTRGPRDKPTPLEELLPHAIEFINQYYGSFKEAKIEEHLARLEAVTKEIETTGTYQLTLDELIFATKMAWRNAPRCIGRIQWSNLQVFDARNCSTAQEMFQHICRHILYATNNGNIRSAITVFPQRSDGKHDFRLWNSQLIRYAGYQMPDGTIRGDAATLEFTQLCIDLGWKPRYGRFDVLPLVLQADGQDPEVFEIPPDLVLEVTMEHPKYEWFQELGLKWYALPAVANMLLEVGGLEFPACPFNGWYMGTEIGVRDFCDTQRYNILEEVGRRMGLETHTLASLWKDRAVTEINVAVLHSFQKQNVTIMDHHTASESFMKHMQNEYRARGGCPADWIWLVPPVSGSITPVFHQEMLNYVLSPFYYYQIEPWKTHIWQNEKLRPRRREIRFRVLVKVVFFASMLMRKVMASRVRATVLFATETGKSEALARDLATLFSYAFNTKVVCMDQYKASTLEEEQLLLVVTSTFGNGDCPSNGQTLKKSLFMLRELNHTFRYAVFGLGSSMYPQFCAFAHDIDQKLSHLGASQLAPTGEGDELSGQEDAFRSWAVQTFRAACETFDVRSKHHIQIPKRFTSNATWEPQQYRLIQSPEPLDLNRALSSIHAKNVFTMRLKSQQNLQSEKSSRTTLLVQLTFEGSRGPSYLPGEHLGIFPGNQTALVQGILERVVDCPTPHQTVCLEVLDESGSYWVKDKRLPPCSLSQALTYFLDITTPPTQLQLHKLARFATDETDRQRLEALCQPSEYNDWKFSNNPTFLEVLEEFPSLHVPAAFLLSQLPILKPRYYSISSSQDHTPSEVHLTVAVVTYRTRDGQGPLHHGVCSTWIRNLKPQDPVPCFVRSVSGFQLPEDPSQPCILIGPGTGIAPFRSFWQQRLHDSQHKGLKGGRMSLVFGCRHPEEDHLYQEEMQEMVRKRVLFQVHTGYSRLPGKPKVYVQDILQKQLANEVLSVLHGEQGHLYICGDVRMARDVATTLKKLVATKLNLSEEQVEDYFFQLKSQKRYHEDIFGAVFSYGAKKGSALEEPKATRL

Caspase-1 = biological target: T4, Caspase-1 (Homo sapiens, UniProt P29466); set-up: species or system Escherichia coli;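 further: Caspase-1 enzyme inhibition assay with a peptide substrate; in other assays of this panel Not Active means under 50% inhibition at 10 µM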
T4 sequence (P29466 whole entry): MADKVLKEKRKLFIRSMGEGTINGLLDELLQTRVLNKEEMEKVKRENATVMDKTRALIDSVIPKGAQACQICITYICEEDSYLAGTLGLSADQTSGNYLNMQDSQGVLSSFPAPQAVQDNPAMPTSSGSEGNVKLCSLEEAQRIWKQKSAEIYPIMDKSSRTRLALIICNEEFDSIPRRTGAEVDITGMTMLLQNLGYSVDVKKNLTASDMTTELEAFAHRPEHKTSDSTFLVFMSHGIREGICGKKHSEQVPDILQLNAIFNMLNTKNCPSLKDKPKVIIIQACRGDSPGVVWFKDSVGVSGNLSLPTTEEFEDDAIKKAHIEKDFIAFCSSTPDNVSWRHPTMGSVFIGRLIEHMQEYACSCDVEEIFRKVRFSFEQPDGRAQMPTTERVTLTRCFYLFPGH

Sigma non-opioid intracellular receptor 1, sequence (Q99720 whole entry): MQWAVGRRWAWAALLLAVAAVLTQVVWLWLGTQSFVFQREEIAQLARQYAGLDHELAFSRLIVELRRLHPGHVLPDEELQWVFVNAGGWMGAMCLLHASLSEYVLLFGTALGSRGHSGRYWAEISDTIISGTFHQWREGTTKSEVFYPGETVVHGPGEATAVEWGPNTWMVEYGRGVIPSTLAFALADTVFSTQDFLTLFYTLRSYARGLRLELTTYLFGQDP

Molecule	IC50 ([1]; jurkat)	IC50 (Cathepsin G)	IC50 (D(4) dopamine receptor; cho-k1)	IC50 [2]	Ki [2]	IC50 (Substance-P receptor)	IC50 [3]	IC50 (Caspase-1)	Ki ([1]; jurkat)	Ki (Cathepsin G)	Ki (D(4) dopamine receptor; cho-k1)	Ki (Substance-P receptor)	Ki [3]	Ki (Caspase-1)	IC50 ([2]; read-out: IC50) [nM]	Ki ([2]; read-out: Ki) [nM]	IC50 ([1]; read-out: IC50) [nM]	Ki ([1]; read-out: Ki) [nM]	IC50 (D(4) dopamine receptor; read-out: IC50) [nM]	Ki (D(4) dopamine receptor; read-out: Ki) [nM]
CCS(=O)(=O)CCn1c([N+](=O)[O-])cnc1C [TINIDAZOLE]	Not Active	Not Active	Not Active	Not Active	Not Active	Not Active	Not Active	Not Active												
Nc1nc2c(c(=O)[nH]1)N(C=O)C(CNc1ccc(C(=O)N[C@@H](CCC(=O)O)C(=O)O)cc1)CN2 (stereo partly specified) [LEUCOVORIN]	Not Active	Not Active	Not Active	Not Active	Not Active	Not Active	Not Active	Not Active												
CC(=O)O[C@H]1C[C@@H]2CC[C@@H]3[C@H](CC[C@@]4(C)[C@H]3C[C@H]([N+]3(C)CCCCC3)[C@@H]4OC(C)=O)[C@@]2(C)C[C@@H]1N1CCCCC1.[Br-] [VECURONIUM BROMIDE]	Not Active	Not Active	Not Active	Not Active	Not Active	Not Active	Not Active	Not Active												
C[C@@H](O)[C@H]1C(=O)N2C(C(=O)O)=C(S[C@@H]3CN[C@H](C(=O)N(C)C)C3)[C@H](C)[C@H]12 [MEROPENEM]	Not Active	Not Active	Not Active	Not Active	Not Active	Not Active	Not Active	Not Active												
Cc1cn([C@H]2C[C@H](N=[N+]=[N-])[C@@H](CO)O2)c(=O)[nH]c1=O [ZIDOVUDINE]	Not Active	Not Active	Not Active	Not Active	Not Active	Not Active	Not Active	Not Active												
COc1cc(N)nc2[nH]c(-c3ccc(F)cc3)c(-c3ccncc3)c12	Not Active	Not Active	Not Active	Not Active	Not Active	Not Active	Not Active	Not Active												
CN1C2CCCC1CC(NC(=O)c1nn(C)c3ccccc13)C2 (stereo unspecified) [GRANISETRON]	Not Active	Not Active	Not Active			Not Active	Not Active	Not Active												
THIMEROSAL	Not Active	Not Active	Not Active	Not Active	Not Active	Not Active	Not Active	Not Active	Not Active	Not Active	Not Active	Not Active	Not Active	Not Active						
C[C@]12CC[C@H]3[C@@H](CCC4=CC(=O)CC[C@@]43C)[C@@H]1CC[C@@H]2O [TESTOSTERONE]	Not Active	Not Active	Not Active	Not Active	Not Active	Not Active	Not Active	Not Active												
CNS(=O)(=O)Cc1ccc2[nH]cc(CCN(C)C)c2c1	Not Active	Not Active	Not Active	Not Active	Not Active	Not Active	Not Active	Not Active												
CO[C@H]1C[C@@H]2CC[C@@H](C)[C@@](O)(O2)C(=O)C(=O)N2CCCC[C@H]2C(=O)O[C@H]([C@H](C)C[C@@H]2CC[C@@H](O)[C@H](OC)C2)CC(=O)[C@H](C)/C=C(\C)[C@@H](O)[C@@H](OC)C(=O)[C@H](C)C[C@H](C)/C=C/C=C/C=C/1C [SIROLIMUS]	Not Active	Not Active	Not Active			Not Active	Not Active	Not Active							1080	371				
CC(C)OC(=O)C(C)(C)Oc1ccc(C(=O)c2ccc(Cl)cc2)cc1 [FENOFIBRATE]	Not Active		Not Active			Not Active	Not Active	Not Active		Not Active										
CN(CCOc1ccc(CC2SC(=O)NC2=O)cc1)c1ccccn1 (stereo unspecified) [ROSIGLITAZONE]	Not Active	Not Active	Not Active	Not Active	Not Active	Not Active	Not Active	Not Active												
C=C(C)[C@H]1Cc2c(ccc3c2O[C@@H]2COc4cc(OC)c(OC)cc4[C@@H]2C3=O)O1 [ROTENONE]	Not Active	Not Active	Not Active	Not Active	Not Active	Not Active	Not Active	Not Active												
Nc1ccc(S(=O)(=O)Nc2nccs2)cc1 [SULFATHIAZOLE]	Not Active	Not Active	Not Active	Not Active	Not Active	Not Active	Not Active	Not Active												
OCCN1CCN(CCCN2c3ccccc3Sc3ccc(C(F)(F)F)cc32)CC1 [FLUPHENAZINE]		Not Active				Not Active	Not Active	Not Active									20	8.57	5880	2060
CC[C@@H](CO)NC(=O)[C@@H]1C=C2c3cccc4c3c(cn4C)C[C@H]2N(C)C1 [METHYSERGIDE]		Not Active	Not Active			Not Active	Not Active	Not Active												
CC(=O)Nc1nnc(S(N)(=O)=O)s1 [ACETAZOLAMIDE]	Not Active	Not Active	Not Active			Not Active	Not Active	Not Active												
CCN(CC)CC#CCOC(=O)C(O)(c1ccccc1)C1CCCCC1 (stereo unspecified) [OXYBUTYNIN]		Not Active	Not Active				Not Active	Not Active				Not Active					24.2	10.2		
O=c1[nH]c2ccccc2n1CCCN1CCC(n2c(=O)[nH]c3cc(Cl)ccc32)CC1 [DOMPERIDONE]	Not Active	Not Active	Not Active			Not Active	Not Active	Not Active												
O=c1n(CCCN2CCN(c3cccc(Cl)c3)CC2)nc2ccccn12 [TRAZODONE]		Not Active	Not Active			Not Active	Not Active	Not Active									2200	926		
